Reference: US20240417387A1, “SULFONYLPIPERAZINYL COMPOUNDS FOR TREATMENT OF BACTERIAL INFECTIONS” (Hoffmann-La Roche Inc., priority 2021, published 2024)
Converted amounts (≈) assume the structure as drawn.

Experiments:
[1] = system: Klebsiella pneumonia ATCC 43816; assay: Minimal Inhibitory Concentration (MIC) broth dilution assay, K. pneumonia ATCC 43816; format: cell-based; conditions: Klebsiella pneumoniae, ATCC43816, 20 hours at 35° C., CAMHB, read-out: MIC K. p ATCC 43816
Summary of the method: (§1)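 Broth microdilution with twofold compound series in cation-adjusted Mueller Hinton broth, inoculum 5×10^5 CFU/mL, applied to each strain. Plates incubated 20 h at 35 °C in ambient air. MIC […] recorded as the lowest concentration with no visible growth, read by eye.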

[2] = system: Escherichia coli ATCC 25922; assay: Minimal Inhibitory Concentration (MIC) broth dilution assay, E. coli ATCC 25922; format: cell-based; conditions: Escherichia coli, ATCC25922, 20 h, read-out: MIC E. coli ATCC 25922
Summary of the method: as §1

[3] = system: Escherichia coli BW 25113; assay: Minimal Inhibitory Concentration (MIC) broth dilution assay, E. coli BW 25113; format: cell-based; conditions: Escherichia coli, BW25113, 20 hours at 35° C., CAMHB, read-out: MIC E. coli K-12 BW 25113
Summary of the method: as §1

[4] = biological target: Escherichia coli UDP-2,3-diacylglucosamine hydrolase (LpxH) (Escherichia coli (strain K12), UniProt P43341); assay: Enzymatic IC50 assay of Escherichia coli LpxH (UMP/CMP-Glo luminescence); format: biochemical; conditions: Enzymatic IC50 against Escherichia coli LpxH; read-out: IC50 (converted)
Escherichia coli UDP-2,3-diacylglucosamine hydrolase (LpxH), sequence (P43341 whole entry): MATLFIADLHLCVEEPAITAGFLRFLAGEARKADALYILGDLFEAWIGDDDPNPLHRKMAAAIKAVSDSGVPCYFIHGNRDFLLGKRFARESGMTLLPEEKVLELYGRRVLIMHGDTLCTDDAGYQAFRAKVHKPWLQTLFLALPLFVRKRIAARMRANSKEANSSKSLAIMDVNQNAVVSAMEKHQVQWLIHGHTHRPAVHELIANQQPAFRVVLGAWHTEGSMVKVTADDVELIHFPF
Description: The inhibitory potency of compounds of Escherichia coli UDP-2,3-diacylglucosamine hydrolase (LpxH) was determined in an enzymatic assay. UDP-2,3-diacylglucosamine (UDP-DAG) was purified from the Caulobacter crescentus LpxI D225A mutant protein that contained a tightly bound UDP-DAG molecule. The enzyme was diluted using assay buffer containing 50 mM NaCl, 20 mM Tris-HCl pH7.5, 2.5 mM MnCl2, 0.01% Triton X-100.1 mg/mL BSA, and the final concentration is 2 nM. The compounds were diluted by Agilent liquid handler Bravo, the compound's serial dilution dose ranges from 100 μM to 1.7 nM. Then the enzyme and compounds mixture were incubated at room temperature for 10 mins. The enzymatic assay was started by adding UDP-DAG (FAC is 5 μM) and incubated for 20 mins at room temperature. The plate was then heated to 95° C. for 15 mins on a water batch to stop the reaction. The hydrolysis of UDP-DAG by LpxH yielded 2,3-diacylglucosamine 1-phosphate (lipid X) and UMP, which was converted to ATP and quantified by the luciferase reaction using the UMP/CMP-Glo™ Glycosyltransferase Assay kit from Promega. The compound's inhibitory effect of LpxH is determined by measuring the light change using a luminometer (Envision).

[5] = Human microsome stability assay; format: in vitro ADME; conditions: human liver microsomes 0.5 mg/mL, 37° C., pH 7.4, NADPH regenerating system
Summary of the method: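 Compound […] with 0.5 mg/mL human liver microsomal protein in 100 mM potassium phosphate pH 7.4, 10 min preincubation at 37 °C, started with NADPH regenerating system. Sampled 0–30 min, remaining compound by LC-MS/MS; clearance binned low <7, medium 7–16.2, high >16.2 mL/min/kg.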

SMILES	MIC [1] [mg/L]	MIC [2] [mg/L]	MIC [3] [mg/L]	IC50 [4] [nM]	Clearance of Human microsome [5] [L/h/kg]
NCC1(NC(=O)[C@H]2CC[C@H](C(F)(F)c3cc(Cl)nc(N4CCN(S(=O)(=O)c5ccc(N6C[C@H](N)CC6=O)cc5)CC4)c3)CC2)CC1 [Example 012, Trans-N-[1-(aminomethyl)cyclopropyl]-4-[[2-[4-[4-[(4R)-4-amino-2-oxo-pyrrolidin-1-yl]phenyl]sulfonylpiperazin-1-yl]-6-chloro-4-pyridyl]-difluoro-methyl]cyclohexanecarboxamide]	0.57 (≈ 0.838 µM)	0.57 (≈ 0.838 µM)	0.57 (≈ 0.838 µM)	2.94	0.371
NCCN1CCN(C(=O)[C@H]2CC[C@H](C(F)(F)c3cc(Cl)nc(N4CCN(S(=O)(=O)c5ccc(N6C[C@H](N)CC6=O)cc5)CC4)c3)CC2)CC1 [Example 013, Trans-(4R)-4-amino-1-[4-[4-[4-[[4-[4-(2-aminoethyl)piperazine-1-carbonyl]cyclohexyl]-difluoro-methyl]-6-chloro-2-pyridyl]piperazin-1-yl]sulfonylphenyl]pyrrolidin-2-one]	1.3 (≈ 1.8 µM)	2.6 (≈ 3.59 µM)	2.6 (≈ 3.59 µM)	4.15	0.406
NC(=O)[C@H]1CC[C@H](C(F)(F)c2cc(Cl)nc(N3CCN(S(=O)(=O)c4ccc(N5C[C@H](N)CC5=O)cc4)CC3)c2)CC1 [Example 014]	1.1 (≈ 1.8 µM)	1.1 (≈ 1.8 µM)	1.1 (≈ 1.8 µM)	< 3.27	0.369
CN(C)CCCNC(=O)c1ccc(C(F)(F)c2cc(Cl)nc(N3CCN(S(=O)(=O)c4ccc(N5C[C@H](N)CC5=O)cc4)CC3)c2)cc1 [Example 020, 4-[[2-chloro-6-[4-[4-[(4R)-4-amino-2-oxo-pyrrolidin-1-yl]phenyl]sulfonylpiperazin-1-yl]-4-pyridyl]-difluoro-methyl]-N-[3-(dimethylamino)propyl]benzamide]	0.72 (≈ 1.04 µM)	0.72 (≈ 1.04 µM)	0.72 (≈ 1.04 µM)	2.9	0.569
NCCCNC(=O)c1cnc(C(F)(F)c2cc(Cl)nc(N3CCN(S(=O)(=O)c4ccc(N5C[C@H](N)CC5=O)cc4)CC3)c2)cn1 [Example 021, N-(3-aminopropyl)-5-[[2-chloro-6-[4-[4-[(4R)-4-amino-2-oxo-pyrrolidin-1-yl]phenyl]sulfonylpiperazin-1-yl]-4-pyridyl]-difluoro-methyl]pyrazine-2-carboxamide]	1.8 (≈ 2.71 µM)	1.3 (≈ 1.96 µM)	2.2 (≈ 3.31 µM)	3.01	0.651
NCC(O)CNC(=O)c1cnc(C(F)(F)c2cc(Cl)nc(N3CCN(S(=O)(=O)c4ccc(N5C[C@H](N)CC5=O)cc4)CC3)c2)cn1 (stereo partly drawn) [Example 022, N-(3-amino-2-hydroxy-propyl)-5-[[2-chloro-6-[4-[4-[(4R)-4-amino-2-oxo-pyrrolidin-1-yl]phenyl]sulfonylpiperazin-1-yl]-4-pyridyl]-difluoro-methyl]pyrazine-2-carboxamide]	0.71 (≈ 1.04 µM)	0.71 (≈ 1.04 µM)	1.4 (≈ 2.06 µM)	5.88	0.369
CN(C)CCCNC(=O)c1cnc(C(F)(F)c2cc(Cl)nc(N3CCN(S(=O)(=O)c4ccc(N5C[C@H](N)CC5=O)cc4)CC3)c2)cn1 [Example 023, 5-[[2-chloro-6-[4-[4-[(4R)-4-amino-2-oxo-pyrrolidin-1-yl]phenyl]sulfonylpiperazin-1-yl]-4-pyridyl]-difluoro-methyl]-N-[3-(dimethylamino)propyl]pyrazine-2-carboxamide]	2.9 (≈ 4.19 µM)	1.4 (≈ 2.02 µM)	1.4 (≈ 2.02 µM)	< 2.89	0.369
NCCNC(=O)c1cnc(C(F)(F)c2cc(Cl)nc(N3CCN(S(=O)(=O)c4ccc(N5C[C@H](N)CC5=O)cc4)CC3)c2)cn1 [Example 024, N-(2-aminoethyl)-5-[[2-chloro-6-[4-[4-[(4R)-4-amino-2-oxo-pyrrolidin-1-yl]phenyl]sulfonylpiperazin-1-yl]-4-pyridyl]-difluoro-methyl]pyrazine-2-carboxamide]	0.69 (≈ 1.06 µM)	0.69 (≈ 1.06 µM)	0.69 (≈ 1.06 µM)	4.61	0.6732
NCCCNC(=O)c1ccc(C(F)(F)c2cc(Cl)nc(N3CCN(S(=O)(=O)c4ccc(N5C[C@H](N)CC5=O)cc4)CC3)c2)nc1 [Example 026, N-(3-aminopropyl)-6-[[2-chloro-6-[4-[4-[(4R)-4-amino-2-oxo-pyrrolidin-1-yl]phenyl]sulfonylpiperazin-1-yl]-4-pyridyl]-difluoro-methyl]pyridine-3-carboxamide]	0.78 (≈ 1.18 µM)	0.78 (≈ 1.18 µM)	0.78 (≈ 1.18 µM)	10.6	0.369
CN(C)CCCNC(=O)c1ccc(C(F)(F)c2cc(Cl)nc(N3CCN(S(=O)(=O)c4ccc(N5C[C@H](N)CC5=O)cc4)CC3)c2)nc1 [Example 027, 6-[[2-chloro-6-[4-[4-[(4R)-4-amino-2-oxo-pyrrolidin-1-yl]phenyl]sulfonylpiperazin-1-yl]-4-pyridyl]-difluoro-methyl]-N-[3-(dimethylamino)propyl]pyridine-3-carboxamide]	3.2 (≈ 4.63 µM)	3.2 (≈ 4.63 µM)	1.6 (≈ 2.31 µM)	5.79	0.369
CNCCCNC(=O)c1ccc(C(F)(F)c2cc(Cl)nc(N3CCN(S(=O)(=O)c4ccc(N5C[C@H](N)CC5=O)cc4)CC3)c2)cn1 [Example 029, 5-[[2-chloro-6-[4-[4-[(4R)-4-amino-2-oxo-pyrrolidin-1-yl]phenyl]sulfonylpiperazin-1-yl]-4-pyridyl]-difluoro-methyl]-N-[3-(methylamino)propyl]pyridine-2-carboxamide]	1.4 (≈ 2.07 µM)	1.4 (≈ 2.07 µM)	2.8 (≈ 4.13 µM)	2.95	0.433
CN(CCN)C(=O)[C@H]1CC[C@H](C(F)(F)c2cc(Cl)nc(N3CCN(S(=O)(=O)c4ccc(N5C[C@H](N)CC5=O)cc4)CC3)c2)CC1 [Example 030, Trans-N-(2-aminoethyl)-4-[[2-chloro-6-[4-[4-[(4R)-4-amino-2-oxo-pyrrolidin-1-yl]phenyl]sulfonylpiperazin-1-yl]-4-pyridyl]-difluoro-methyl]-N-methyl-cyclohexanecarboxamide]	1.7 (≈ 2.54 µM)	1.1 (≈ 1.65 µM)	1.7 (≈ 2.54 µM)	8.98	0.414
NCCCNC(=O)[C@H]1CC[C@@H](C(F)(F)c2cc(Cl)nc(N3CCN(S(=O)(=O)c4ccc(N5C[C@H](N)CC5=O)cc4)CC3)c2)CC1 [Example 031]	2.2 (≈ 3.29 µM)	2.2 (≈ 3.29 µM)	1.7 (≈ 2.54 µM)	7.48	0.369
NCCCNC(=O)C12CCC(C(F)(F)c3cc(Cl)nc(N4CCN(S(=O)(=O)c5ccc(N6C[C@H](N)CC6=O)cc5)CC4)c3)(CC1)CC2 [Example 033, N-(3-aminopropyl)-4-[[2-chloro-6-[4-[4-[(4R)-4-amino-2-oxo-pyrrolidin-1-yl]phenyl]sulfonylpiperazin-1-yl]-4-pyridyl]-difluoro-methyl]bicyclo[2.2.2]octane-1-carboxamide]	0.43 (≈ 0.619 µM)	0.57 (≈ 0.821 µM)	1.1 (≈ 1.58 µM)	5.76	0.6462
